This test has as its system SK-MEL-5 viability, ATP luminescence (CellTiter-Glo), 24 h. As to the kind of experiment: cytotoxicity in parental SK-MEL-5 melanoma cells – cell-based, CellTiter-Glo, cherry-picked, set 3, orthogonal assay for MITF inhibitor project, dose response (AID 493240).

`Cc1ccc(C(O)(c2ccc(C)c(C)c2)C2CN3CCC2CC3)cc1C` (centres undefined): the AC50 is 17.1 µM.
Then `COC(=O)C1=C(C)N(Cc2ccccc2)C(=NCc2ccccc2)N[C@H]1c1ccccc1`, with 26.8 µM; and `O=C(N/N=C/c1ccc([N+](=O)[O-])o1)c1ccc(O)cc1`, with 16.7 µM.
The figure for `COc1ccccc1NS(=O)(=O)c1cccc(C(=O)N/N=C/c2ccc([N+](=O)[O-])o2)c1` is 17.3 µM.
The figure for `CCN(CC)CCn1nc2c3c(cccc3c1=O)-c1ccccc1-2` is 20.3 µM; for `CN(C)S(=O)(=O)c1ccc(-c2csc(N/N=C/c3ccc(O)cc3)n2)cc1` it is 17.5 µM.
In the case of `CC(=O)Nc1sc(C)c(C)c1C(=O)OCC(=O)N(CC(C)C)c1c(N)n(Cc2ccccc2)c(=O)[nH]c1=O`, the AC50 is 8.38 µM.
The figure for `Oc1c(CN2CCCCC2)cc(COCc2ccccc2)c2cccnc12` is 16.9 µM.
Then `Cc1ccc(Cn2c(=N)n(CC(=O)c3ccc([N+](=O)[O-])cc3)c3ccccc32)cc1`, with 21.9 µM.
On to `Cc1cc(C(C)(C)C)cc(C)c1Cn1c2[n+](c3ccc(C(F)(F)F)cc31)CCCCC2`, for which the AC50 was 16 µM.
Then `CC(C)(C)c1ccc(-c2cn(-c3ccc(Br)cc3)c3[n+]2CCCS3)cc1`, with 11.4 µM.
Then `CCn1c(/C=C/Nc2ccccc2)[n+](CC)c2cc(Cl)c(Cl)cc21`, with 28.7 µM.
On to `O=[N+]([O-])c1ccc(/C=N/n2cnc3ccccc32)s1`, for which the half-maximal activity concentration (AC50) was 17.9 µM.
For the compound `CC1=NNC(=O)/C1=C\c1cn(-c2ccccc2)nc1-c1ccc(F)cc1`, the AC50 is 15.5 µM.
Then `Cc1cc(C)n(-c2ccc(C(=O)Nc3ccc(C)c(S(=O)(=O)N4CCOCC4)c3)cc2)n1`, with 28.1 µM; and `O=C(CCl)Nc1cccc(S(=O)(=O)N2CCCCCC2)c1`, with 11.2 µM.
Then `CC(=O)N(\C=C/C=C/C=C1\Sc2ccccc2C1=O)c1ccccc1`, with 21.2 µM; and `CN(C)CCNC(=O)/C(=C/c1ccc(-c2ccc(Cl)cc2)o1)NC(=O)c1ccccc1`, with 20.4 µM; and `OC(CNCC(c1ccc(Cl)cc1Cl)c1c[nH]c2ccccc12)c1ccccc1` (centres undefined), with 16.8 µM.
With `CC1=C(CC(=O)c2ccccc2)C(=O)c2ccccc2C1=O`, the AC50 was 7.67 µM.
Then `O=C(NC1=C(Nc2ccc(Cl)cc2)C(=O)c2ccccc2C1=O)c1ccccc1`, with 11.2 µM.
The figure for `CS(=O)(=O)c1ccc(S(=O)CC(=O)OCc2ccccc2)c([N+](=O)[O-])c1` (centres undefined) is 28.3 µM; for `COc1cc(CNC2CCCC2)cc(Cl)c1OCc1ccccc1Cl` it is 16.8 µM; for `O=C(CCl)Nc1cccc(-c2cnc3ccccc3n2)c1` it is 17.3 µM.
Then `CCCCN(CC)CCCNC(=O)c1cc2c(=O)n(CC)c3ccccc3c2s1`, with 23.2 µM.
For `O=C(COc1ccc(Cl)cc1Cl)Nc1ccccn1`, the AC50 is 19.6 µM.
The figure for `COc1ccc(-c2nn(-c3ccccc3)cc2/C=N/N=C(N)N)cc1OC` is 18 µM; for `Cc1ccccc1-c1nc(CN2CCC(C(=O)NCCCN3CCCC(C)C3)CC2)c(C)o1` (centres undefined) it is 28.9 µM.
Then `CC(=O)Nc1ccc(Nc2c3ccccc3nc3ccccc23)cc1`, with 16.6 µM; and `N/C(=N\OC(=O)c1ccccc1Cl)c1ccccn1`, with 28.8 µM; and `Cc1c(N=C2C=CC(=O)c3ccccc32)c(=O)n(-c2ccccc2)n1C`, with 30.9 µM.
The figure for `CCN1CCN(CCCNC(=O)c2ccc3c(c2)NC(=O)/C(=C\c2cccc(C)c2)S3)CC1` is 20.3 µM; for `Cc1cc(C)cc(NC(=O)c2ccc([N+](=O)[O-])o2)c1` it is 27.7 µM.
`Cc1cc(C)c[n+](C2=C([O-])c3ccccc3C(=O)/C2=N\S(=O)(=O)c2cccs2)c1`: the concentration at half-maximal activity (AC50) is 15.4 µM.
Then `C=CCn1c(C)cc(C2=NNC(=NCC)SC2)c1C`, with 12.9 µM.
The figure for `COc1ccccc1C(=O)Nc1nc(-c2ccc(S(=O)(=O)N3CCOCC3)cc2)cs1` is 20.8 µM; for `O=C(CCl)N1c2ccccc2SCC1c1ccccc1` (centres undefined) it is 21.3 µM.
Turning to `CCNC1=C(Cl)C(=O)c2ccccc2C1=O`, the AC50 was 9.44 µM.
Then `N#CCc1ccc(NC(=O)/C=C/c2ccc([N+](=O)[O-])o2)cc1`, with 31.2 µM.
Then `CC(C)n1cc(/C=C/c2cc[n+](C)cc2)c2ccccc21`, with 23 µM.
On to `CC1CCC(C(C)C)C(OC(=O)Cn2c(-c3ccc(Cl)cc3)[n+](C)c3ccccc32)C1` (centres undefined), for which the AC50 was 10.4 µM.
Then `CCS(=O)(=O)c1ccc(N=Nc2ccc(O)c3ncccc23)c(OC)c1`, with 33.5 µM; and `CC(C)Oc1ccc(C(CCNCc2ccc(O)cc2)c2ccccc2)cc1` (centres undefined), with 16.5 µM; and `CCCCN1C=CC(=C2C(=O)c3ccccc3C2=O)C=C1`, with 19.9 µM.
The figure for `CCN1CCN(C2=C(NS(=O)(=O)c3ccc(C)cc3)C(=O)c3ccccc3C2=O)CC1` is 21.9 µM.
The figure for `CCN(CC)CCNC(=O)C1CCN(S(=O)(=O)c2c(C)noc2/C=C/c2ccccc2F)CC1` is 28.8 µM.
Take `CS(=O)(=O)c1nc(-c2ccc(F)cc2)cc(C(F)(F)F)n1`: the AC50 is 20.3 µM.
With `COc1ccc2oc(C(=O)Nc3ccc(S(=O)(=O)N(C)C4CCN(C)CC4)cc3)c(C)c2c1`, the AC50 was 17.5 µM.
Turning to `Cc1ccc(-c2cn(-c3ccc(SC(F)F)cc3)c3[n+]2CCC3)cc1`, the half-maximal activity concentration (AC50) was 28 µM.
Then `CCCCn1c(=N)n(CCOc2ccc(C)cc2)c2ccccc21`, with 17.6 µM; and `Cc1ccc2sc(N(CCCN(C)C)C(=O)c3ccc(S(=O)(=O)N(C)C4CCCCC4)cc3)nc2c1C`, with 26.7 µM.
The figure for `COc1cc(NC(=O)COc2ccccc2[N+](=O)[O-])ccc1NC(=O)c1cccs1` is 26.4 µM; for `c1ccc2cc3c(NCCN4CCOCC4)ccnc3cc2c1` it is 3.68 µM.
The figure for `CCOC(=O)CSC1=NC(=O)/C(=C/c2ccc(OC)cc2)S1` is 28.5 µM; for `Cc1ccc(S(=O)(=O)N2CCCCC2)cc1NC(=O)Cn1ncc(Cl)c(Cl)c1=O` it is 19.3 µM; for `CCN1CCN(C2=C(NS(=O)(=O)c3ccc(Br)cc3)C(=O)c3ccccc3C2=O)CC1` it is 22.9 µM.
Regarding `CC[n+]1c(-c2ccccc2)c2cc(N)ccc2c2ccc(N)cc21`, the AC50 is 15 µM.
Then `CN(C)CCCNc1nc2sc3c(c2c(=O)n1CCc1ccccc1)CCCCC3`, with 19.8 µM.
Then `CCSCCc1nnc(NC(=O)Nc2cccc(C(F)(F)F)c2)s1`, with 16.6 µM; and `O=C(Nc1ccc(Cl)c(S(=O)(=O)N2CCOCC2)c1)c1ccc(OCC2CCCO2)cc1` (centres undefined), with 9.27 µM.
`Nc1nc2ccccc2n1/N=C/c1ccc([N+](=O)[O-])s1`: the AC50 is 25.8 µM.
Then `COc1ccc(S(=O)(=O)N(C(C)=O)c2ccc(OC(C)=O)c3ccccc23)cc1[N+](=O)[O-]`, with 17 µM; and `COCCCn1[nH]c2c3c(ccc2c1=O)C(=O)c1ccccc1C3=O`, with 16.5 µM; and `CCC(C)(C)c1ccc(OCCCC[n+]2ccccc2)c(C(C)(C)CC)c1`, with 15.3 µM.
The figure for `O=C(Nc1cccc(Cl)c1)Nc1cc(S(=O)(=O)N2CCCCC2)ccc1Cl` is 22.9 µM.
The figure for `Cc1cc(C)cc(NS(=O)(=O)c2ccc3c(c2)c(=O)n(C)c(=O)n3C)c1` is 25.5 µM; for `COc1ccc(C(=O)/C=C/C(=O)N(CC(=O)NC2CCCCC2)Cc2ccccc2OC)c(O)c1` it is 9.67 µM.
Take `COc1cc(NC(=O)COc2cc(O)c3c(c2)OC(C)(C)CC3=O)cc(OC)c1OC`: the AC50 was 23.4 µM.
The figure for `COc1ccc(C(=O)/C=C/C(=O)N(CC(=O)NC2CCCCC2)CC2CCCO2)c(O)c1` (centres undefined) is 11.9 µM; for `Cc1cc(C)c2sc(N(CCCN(C)C)C(=O)COc3ccc(Cl)cc3)nc2c1` it is 24.7 µM; for `COc1ccccc1NS(=O)(=O)c1cc(NC(=O)c2ccc(Cl)nc2)ccc1Cl` it is 24.3 µM.
`CC(C)C1CC(CCNCc2ccc(N(C)C)cc2)(c2ccccc2)CCO1` (centres undefined): the concentration at half-maximal activity (AC50) is 21.9 µM.
The figure for `CC(C)C(CCNC1CCN(C)CC1)c1ccc(Cl)cc1` (centres undefined) is 23.1 µM; for `Cc1ccccc1NC(=O)Cc1nc(COC(=O)c2ccc(S(C)(=O)=O)c([N+](=O)[O-])c2)cs1` it is 27.3 µM.
On to `Cc1ccc(-c2c[n+](Cc3ccc(Cl)c(Cl)c3)c3n2CCC3)cc1`, for which the AC50 is 15.3 µM.
The figure for `O=C(CCl)N(c1ccccc1)C1CCS(=O)(=O)C1` (centres undefined) is 29.9 µM; for `Cn1cccc1C(=O)NC(=O)COC(=O)c1ccc(S(C)(=O)=O)c([N+](=O)[O-])c1` it is 31.4 µM.
Take `COc1ccc(-n2cc(-c3ccc(C)cc3)[n+]3c2SCC3)cc1`: the AC50 is 19.9 µM.
The figure for `CCN(CC)CCNC(=O)c1ccc(NC(=O)c2cccc(S(=O)(=O)N3c4ccccc4CC3C)c2)cc1` (centres undefined) is 22.5 µM; for `COc1ccc(Oc2cc(NC(=O)c3nn(C)cc3[N+](=O)[O-])cc([N+](=O)[O-])c2)cc1` it is 30.4 µM; for `CCOc1c(Br)cc(CNC2CCCCCCC2)cc1OC` it is 16.5 µM.
For `CC1=CC2/C=C(\C)CCC(O)C(O)/C=C/C(=O)C23C(=O)NC(CC(C)C)C3C1C` (centres undefined), the AC50 was 15.9 µM.
Then `CC(=O)N1CCc2c(sc(NC(=O)c3ccc([N+](=O)[O-])o3)c2C#N)C1`, with 17.2 µM; and `O=C(/C=C/c1ccc(Cl)c([N+](=O)[O-])c1)c1ccc(O)cc1`, with 27.3 µM.
Then `COc1cc(/C=N/NC(N)=O)c(Br)cc1OCC(=O)Nc1ccccc1C`, with 27.2 µM; and `Cc1ccc(C(C)C)c(OCc2nn(CC(=O)c3ccc(Cl)cc3)c3[n+]2CCCCC3)c1`, with 18.4 µM; and `COc1cccc2sc(N(CCCN(C)C)C(=O)C(c3ccccc3)c3ccccc3)nc12`, with 18.3 µM.
Regarding `CC(C)=NOc1cc(NC(=O)CCl)cc([N+](=O)[O-])c1`, the AC50 is 17.4 µM.
On to `C#CC(=O)N(c1ccc(OC)cc1OC)C(C(=O)NC1CCCC1)c1cccs1` (centres undefined), for which the AC50 was 19.9 µM.
Then `O=C(Nc1ccc(Nc2ccncc2)cc1)c1ccc([N+](=O)[O-])cc1`, with 34.3 µM.
Then `Cc1ccc(C(=O)N/N=C\c2ccc([N+](=O)[O-])s2)cn1`, with 33.9 µM.
For `N=c1n(CC(=O)c2ccc([N+](=O)[O-])cc2)c2ccccc2n1Cc1ccc(Cl)cc1`, the AC50 is 16.9 µM.
The figure for `O=C1C(Nc2ccccc2)=C(N2CCCCC2)C(=O)c2ccccc21` is 12.7 µM.
Consider `CCCCN1CCc2c1nc1ccc(Br)cc1c2N`, for which the AC50 is 25.6 µM.
